This note sets out measurements from ChEMBL document CHEMBL1138859, “Synthesis and Src kinase inhibitory activity of a series of 4-[(2,4-dichloro-5-methoxyphenyl)amino]-7-furyl-3-quinolinecarbonitriles” (J Med Chem, 2006).

SMILES strings stand for the structures. In brackets after ≈: the same amount, converted by molar mass.

Data set [1] can be described thus: Permeability by PAMPA assay. The format is ADME. The settings on record: read-out: permeability. On the technique in general: The PAMPA barrier holds no transporters, so it reflects passive diffusion.
Data set [2] concerns the target Epidermal growth factor receptor (Homo sapiens, UniProt P00533). Kind of data set: Inhibitory activity against EGFR.
Data set [3] in a line: Stability in rat liver microsomes after 30 min. The format is ADME, Microsome. To be noted: read-out: Stability. (Microsomes from liver hold many membrane-bound enzymes, among them those of drug oxidation.)
The target in data set [4] is Proto-oncogene tyrosine-protein kinase Src (Homo sapiens, UniProt P12931). Kind of data set: Inhibition of Src.
Sequence of Proto-oncogene tyrosine-protein kinase Src (P12931 2-536 limits assumed): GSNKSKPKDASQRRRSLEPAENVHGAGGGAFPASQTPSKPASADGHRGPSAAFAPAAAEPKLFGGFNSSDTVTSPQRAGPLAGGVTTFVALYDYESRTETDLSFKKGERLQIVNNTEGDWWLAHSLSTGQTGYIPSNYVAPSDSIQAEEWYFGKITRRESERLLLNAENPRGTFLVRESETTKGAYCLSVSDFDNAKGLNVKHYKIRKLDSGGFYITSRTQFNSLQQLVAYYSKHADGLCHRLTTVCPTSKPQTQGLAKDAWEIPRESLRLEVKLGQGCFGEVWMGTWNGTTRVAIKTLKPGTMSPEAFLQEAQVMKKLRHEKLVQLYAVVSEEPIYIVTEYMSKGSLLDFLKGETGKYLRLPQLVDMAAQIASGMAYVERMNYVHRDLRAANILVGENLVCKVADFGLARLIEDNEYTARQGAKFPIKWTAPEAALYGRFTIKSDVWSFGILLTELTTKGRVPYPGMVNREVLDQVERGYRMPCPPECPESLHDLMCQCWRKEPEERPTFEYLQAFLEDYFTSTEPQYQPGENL
The target in data set [5] is RAC-alpha serine/threonine-protein kinase (Homo sapiens, UniProt P31749). Kind of data set: Inhibition of AKT.
Sequence of RAC-alpha serine/threonine-protein kinase (P31749 whole entry): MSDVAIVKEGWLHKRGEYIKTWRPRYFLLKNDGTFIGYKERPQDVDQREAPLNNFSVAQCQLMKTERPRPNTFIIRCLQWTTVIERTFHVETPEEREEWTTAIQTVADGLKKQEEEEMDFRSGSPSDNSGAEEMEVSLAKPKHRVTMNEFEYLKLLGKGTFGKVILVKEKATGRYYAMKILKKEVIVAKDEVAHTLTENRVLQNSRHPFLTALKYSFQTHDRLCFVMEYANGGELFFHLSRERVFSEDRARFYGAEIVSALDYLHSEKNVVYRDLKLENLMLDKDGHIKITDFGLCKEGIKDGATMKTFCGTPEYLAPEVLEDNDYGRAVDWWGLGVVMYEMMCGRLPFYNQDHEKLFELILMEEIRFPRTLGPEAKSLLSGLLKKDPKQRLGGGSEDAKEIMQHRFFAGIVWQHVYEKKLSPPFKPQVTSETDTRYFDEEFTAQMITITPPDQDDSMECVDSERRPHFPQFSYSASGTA
The target in data set [6] is Vascular endothelial growth factor receptor 2 (Homo sapiens, UniProt P35968). Put plainly: Inhibition of KDR.
Sequence of Vascular endothelial growth factor receptor 2 (P35968 whole entry): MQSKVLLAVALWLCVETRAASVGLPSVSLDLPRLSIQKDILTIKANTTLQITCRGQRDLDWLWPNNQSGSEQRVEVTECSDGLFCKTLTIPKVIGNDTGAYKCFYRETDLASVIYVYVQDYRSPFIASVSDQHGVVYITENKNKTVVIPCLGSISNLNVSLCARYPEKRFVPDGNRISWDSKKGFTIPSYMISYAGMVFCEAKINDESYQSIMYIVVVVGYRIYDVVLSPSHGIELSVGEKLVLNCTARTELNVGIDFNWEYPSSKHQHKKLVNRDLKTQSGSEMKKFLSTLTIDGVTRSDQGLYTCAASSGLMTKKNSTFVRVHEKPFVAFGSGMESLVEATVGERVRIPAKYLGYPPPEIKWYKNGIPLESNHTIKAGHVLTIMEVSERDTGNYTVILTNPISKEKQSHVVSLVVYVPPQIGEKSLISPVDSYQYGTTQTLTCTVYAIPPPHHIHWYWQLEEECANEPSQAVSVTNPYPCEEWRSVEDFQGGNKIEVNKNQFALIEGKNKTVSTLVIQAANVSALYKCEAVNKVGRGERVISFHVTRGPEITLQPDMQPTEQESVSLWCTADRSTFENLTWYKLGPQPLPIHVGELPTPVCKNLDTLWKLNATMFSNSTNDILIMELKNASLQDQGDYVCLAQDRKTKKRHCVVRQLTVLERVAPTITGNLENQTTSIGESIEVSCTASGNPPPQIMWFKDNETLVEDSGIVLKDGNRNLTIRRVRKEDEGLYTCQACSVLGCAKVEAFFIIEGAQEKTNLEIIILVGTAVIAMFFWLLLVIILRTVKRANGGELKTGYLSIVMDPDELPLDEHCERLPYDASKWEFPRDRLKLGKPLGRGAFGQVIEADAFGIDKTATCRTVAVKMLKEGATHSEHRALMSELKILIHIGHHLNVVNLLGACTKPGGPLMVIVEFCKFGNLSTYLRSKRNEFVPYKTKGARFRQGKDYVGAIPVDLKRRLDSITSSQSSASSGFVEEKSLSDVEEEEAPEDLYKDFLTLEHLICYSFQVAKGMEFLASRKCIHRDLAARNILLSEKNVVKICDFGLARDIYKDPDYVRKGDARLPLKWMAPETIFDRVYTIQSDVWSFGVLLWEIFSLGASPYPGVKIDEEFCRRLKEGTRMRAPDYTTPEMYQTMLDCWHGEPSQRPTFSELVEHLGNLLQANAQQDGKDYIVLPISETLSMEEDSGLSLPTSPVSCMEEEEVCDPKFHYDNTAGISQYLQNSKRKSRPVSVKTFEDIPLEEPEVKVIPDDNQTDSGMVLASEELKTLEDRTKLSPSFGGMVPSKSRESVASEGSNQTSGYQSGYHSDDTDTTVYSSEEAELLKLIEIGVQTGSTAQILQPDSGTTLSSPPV
Another data set concerns Mus musculus. Put plainly: Toxicity in nude mouse at 150 mg/kg, po. The format is organism-based. On the set-up: dose 150 mg/kg, route oral. The settings on record: in vivo.
In data set [7] the target is Cyclin-dependent kinase 4 (Homo sapiens, UniProt P11802). Kind of data set: Inhibition of CDK4.
Sequence of Cyclin-dependent kinase 4 (P11802 whole entry): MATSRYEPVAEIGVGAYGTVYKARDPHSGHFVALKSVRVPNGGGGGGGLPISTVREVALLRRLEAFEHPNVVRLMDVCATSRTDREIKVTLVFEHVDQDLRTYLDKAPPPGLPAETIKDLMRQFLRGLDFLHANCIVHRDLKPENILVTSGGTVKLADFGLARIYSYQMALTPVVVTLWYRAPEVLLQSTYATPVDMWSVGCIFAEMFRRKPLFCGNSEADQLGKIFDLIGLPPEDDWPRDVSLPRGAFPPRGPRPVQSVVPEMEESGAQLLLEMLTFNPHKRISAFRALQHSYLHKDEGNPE
The nature of data set [8]: Solubility at pH 4.5. The format is physicochemical. The settings on record: buffer.
Data set [9] can be described thus: Plasma concentration in nude mouse after 8 hrs at 50 mg/kg, po. The format is ADME, organism-based. Set-up: dose 50 mg/kg, route oral.
The nature of data set [10]: Plasma concentration in nude mouse after 24 hrs at 50 mg/kg, po. The format is ADME, organism-based. Set-up: dose 50 mg/kg, route oral.
The nature of data set [11]: Stability in nude mouse liver microsomes. The format is ADME, Microsome.
Data set [12] in a line: Plasma concentration in nude mouse after 4 hrs at 50 mg/kg, po. The format is ADME, organism-based. On the set-up: dose 50 mg/kg, route oral.
Another data set has as its system HT-29. Put plainly: Antitumor activity against HT29 cells xenografted in nude mouse after 21 days at 150 mg/kg, po. The format is functional, Homo sapiens.
Data set [13] addresses T1, 3-phosphoinositide-dependent protein kinase 1 (Homo sapiens, UniProt O15530).
T1 sequence (O15530 whole entry): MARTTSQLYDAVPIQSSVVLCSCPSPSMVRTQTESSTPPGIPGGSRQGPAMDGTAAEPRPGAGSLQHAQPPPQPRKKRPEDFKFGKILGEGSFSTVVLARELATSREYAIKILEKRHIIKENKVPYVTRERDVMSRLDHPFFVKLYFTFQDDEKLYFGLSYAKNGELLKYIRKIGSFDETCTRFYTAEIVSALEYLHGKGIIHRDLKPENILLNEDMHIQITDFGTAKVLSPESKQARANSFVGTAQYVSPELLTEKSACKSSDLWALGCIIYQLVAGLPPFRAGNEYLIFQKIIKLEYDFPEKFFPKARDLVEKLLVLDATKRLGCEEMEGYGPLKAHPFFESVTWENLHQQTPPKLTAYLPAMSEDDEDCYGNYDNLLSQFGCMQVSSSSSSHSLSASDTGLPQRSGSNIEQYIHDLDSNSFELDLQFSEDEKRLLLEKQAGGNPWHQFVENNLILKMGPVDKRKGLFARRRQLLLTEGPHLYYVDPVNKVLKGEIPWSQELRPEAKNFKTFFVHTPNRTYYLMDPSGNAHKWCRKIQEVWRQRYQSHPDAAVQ
Kind of data set: Inhibitory activity against PDK1.

Sequence of Epidermal growth factor receptor (P00533 whole entry): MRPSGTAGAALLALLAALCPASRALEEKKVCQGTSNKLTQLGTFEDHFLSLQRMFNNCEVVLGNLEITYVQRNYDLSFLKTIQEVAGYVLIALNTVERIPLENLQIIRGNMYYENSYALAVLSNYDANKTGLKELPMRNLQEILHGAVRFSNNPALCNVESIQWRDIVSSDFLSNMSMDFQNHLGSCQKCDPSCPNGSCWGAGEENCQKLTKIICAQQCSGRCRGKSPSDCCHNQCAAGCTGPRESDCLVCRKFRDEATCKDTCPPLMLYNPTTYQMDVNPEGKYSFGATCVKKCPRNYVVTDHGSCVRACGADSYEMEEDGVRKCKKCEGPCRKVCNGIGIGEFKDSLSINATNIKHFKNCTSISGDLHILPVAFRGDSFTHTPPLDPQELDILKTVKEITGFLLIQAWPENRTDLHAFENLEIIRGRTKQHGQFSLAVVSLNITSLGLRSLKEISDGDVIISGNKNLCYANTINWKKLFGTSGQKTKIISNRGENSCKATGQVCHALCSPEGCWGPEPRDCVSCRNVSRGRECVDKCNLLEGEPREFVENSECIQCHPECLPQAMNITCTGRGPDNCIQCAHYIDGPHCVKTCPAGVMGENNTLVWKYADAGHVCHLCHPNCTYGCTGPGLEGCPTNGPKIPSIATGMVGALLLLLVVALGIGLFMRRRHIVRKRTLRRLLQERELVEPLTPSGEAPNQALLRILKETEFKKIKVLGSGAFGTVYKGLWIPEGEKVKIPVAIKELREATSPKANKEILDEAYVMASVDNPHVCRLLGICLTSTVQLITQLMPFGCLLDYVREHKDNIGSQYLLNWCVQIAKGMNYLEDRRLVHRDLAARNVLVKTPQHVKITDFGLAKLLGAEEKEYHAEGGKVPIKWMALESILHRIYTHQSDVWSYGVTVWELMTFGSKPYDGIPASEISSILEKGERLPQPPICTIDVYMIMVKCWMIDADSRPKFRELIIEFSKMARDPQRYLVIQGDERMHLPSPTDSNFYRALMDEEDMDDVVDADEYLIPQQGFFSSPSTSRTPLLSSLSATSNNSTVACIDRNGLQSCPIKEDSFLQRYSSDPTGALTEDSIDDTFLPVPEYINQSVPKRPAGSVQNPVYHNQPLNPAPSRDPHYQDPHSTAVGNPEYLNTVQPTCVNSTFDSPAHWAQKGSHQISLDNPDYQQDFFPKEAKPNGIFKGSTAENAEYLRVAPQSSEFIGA

Usually IC50 stands for the midpoint of a concentration-inhibition curve. Higher therefore signals weaker potency. In general, solubility refers to the concentration that dissolves in the medium under given conditions. The low end stands for a poorly soluble substance, the high end for a readily soluble substance. Usually half-life stands for the time needed for the level to fall by half in the phase considered. Read a low half-life as fast loss. Regarding `COc1cc(Nc2c(C#N)cnc3cc(-c4coc(CN5CCN(C)CC5)c4)c(OC)cc23)c(Cl)cc1Cl`, in [1], the Papp came out at 2 ×10⁻⁶ cm/s. The half-inhibitory concentration (IC50) was 230 nM in data set [2]; 0.78 nM in data set [4]; more than 1000 nM in data set [5]; more than 1000 nM in data set [6]; more than 1000 nM in data set [7]; more than 1000 nM in data set [13]. Further, in data set [3], the remaining at 0.5 h is 72%. The Activity entry in the data set on Mus musculus was “Non-toxic”; in the data set with HT-29, 38%. Moreover, in data set [8], the solubility turned out to be 63 µg/mL (≈ 114 µM). Besides, the concentration at 8 h in data set [9] amounted to 1030 ng/mL. Besides, the concentration at 24 h in data set [10] was found to be 103 ng/mL. The compound further displayed a half-life in data set [11] of 32 min. The compound further displayed a concentration at 4 h in data set [12] of 1140 ng/mL.
